Laboratory results: patent publication US8906943B2, “Synthetic compounds and methods to decrease nicotine self-administration” (priority 2010, dated 2014)
Like-named read-outs stand apart in the source and are kept apart here. Marks after values point to notes of the source that are not given here. Values belong to the compound of their own block, whether it stands above or below them.

Experiments:
human CYP2A6 = human CYP2A6 (Homo sapiens (Human), UniProt P11509); test: Inhibition of human CYP2A6-mediated coumarin 7-hydroxylation; type: biochemical; settings: for Ki: read-out: Ki human CYP 2A6
Protocol: Our first studies were with highly purified human CYP2A6 that provided a convenient and relatively high-throughput measure of CYP2A6 inhibition. Full dose-response IC50 values (nine concentrations) were determined (Table 1).

CYP2B1 = CYP2B1 (Rattus norvegicus (Rat), UniProt P00176); test: Inhibition of rat CYP2B1; type: biochemical; settings: pH 7.5, Inhibitor present at 100 μM, read-out: rCYP2B1 % inhibition
[1] = system: nicotine self-administration in male Wistar rats; test: Nicotine i.v. self-administration (IVSA) in rats, FR1 schedule; type: in vivo, rat; settings: for Number of nicotine infusions, Compound (15 mg/kg): 15 mg/kg i.p. 30 minutes before i.v. self-administration of 0.03 mg/kg/infusion nicotine; for % Change (decrease in nicotine self-administration): versus vehicle; for Number of nicotine infusions, Compound (25 mg/kg): 25 mg/kg i.p. 30 minutes before i.v. self-administration of 0.03 mg/kg/infusion nicotine; for effect on nicotine intake, ANOVA of dose response: 1-hour self-administration sessions; for ED50: Rattus norvegicus, iv, rats, read-out: apparent ED50, nicotine IVSA
Protocol: Male, Wistar rats trained in a paradigm of nicotine i.v. self-administration (IVSA) generally related to a modification of a previously published protocol (Watkins et al., Pharmacol Biochem Behavior 62, 743-751 (1999)). Rats were treated with test compounds I-7. […] At 3.0 mg/kg, responding for nicotine was decreased by 62% when compared to control (vehicle-treated) conditions. […] On the basis of these initial studies, more extensive work was done and IVSA studies of compounds 8, 10 and 11 were conducted.
As with all the compounds examined in this study, there was no carry-over effect. […] The dose-effect function for treatment of 11 on nicotine self-administration is shown in [FIG. 2].

hCYP2B6 = hCYP2B6 (Homo sapiens (Human), UniProt P20813); test: CYP2B6 inhibition, vivid blue substrate O-dealkylation; type: biochemical; settings: for IC50: ND = no detectable inhibition
Protocol: (§1) To gain insight into the selectivity of the synthetic compounds for inhibition of other CYPs, we examined the major CYPs present in human liver. […] A typical incubation mixture (final volume 0.25 mL) contained 50 mM Tris or KPhos buffer (pH 7.5), 0.5 mM NADP^+, 2.0 mM G6P, 1 U of G6P dehydrogenase and 0.6 mg DETAPAC and the inhibitor was added last to minimize interaction with the protein. After mixing on ice, the reaction was initiated by the addition of substrate and incubated at 37° C. with shaking in air. Organic extracts were analyzed by fluorescence (for fluorometric substrates) or injected onto a Hitachi L-7100 system equipped with a Hitachi L-7400 UV detector. Separations were done with an Altex Ultrasphere ODS (4.6 mm×250 mm, 5 μm) column and analytes were eluted with an isocratic solvent system consisting of water/acetonitrile/methanol (30:10:60, v/v/v) at a flow rate of 1.0 mL/min. Quantification of substrate and metabolite was determined from peak areas of the chromatogram and comparison with standard curves. IC50 values were determined with GraphPad Prism and kinetic data was converted into IC50 values. Each kinetic determination was reported as the mean±SD as described below. […] To measure CYP2A6 activity, coumarin 7-hydroxylation was determined as described in Denton et al., supra. To measure CYP3A4 activity, testosterone 6-hydroxylation was determined as described in Denton et al., supra. To measure CYP2E1, CYP2B6, CYP2C9, CYP2C19 and CYP2D6 activity, isozyme specific vivid blue substrate O-dealkylation was determined via a modified PanVera Vivid Assay Protocol as described in Denton et al., supra.

CYP2E1 = CYP2E1 (Homo sapiens (Human), UniProt P05181); test: CYP2E1 inhibition, vivid blue substrate O-dealkylation; type: biochemical; settings: for inhibition of human CYP 2E1 (in words): 10 μM; for inhibition at 10 µM: human, pH 7.5, probe isozyme specific vivid blue substrate (O-dealkylation), mean of triplicate, read-out: CYP2E1 Percent Inhibition
Protocol: as §1

CYP2C9 = CYP2C9 (Homo sapiens (Human), UniProt P11712); test: CYP2C9 inhibition, vivid blue substrate O-dealkylation; type: biochemical; settings: pH 7.5, probe isozyme specific vivid blue substrate (O-dealkylation), mean of triplicate, read-out: CYP2C9 Percent Inhibition
Protocol: as §1

CYP2C19 = CYP2C19 (Homo sapiens (Human), UniProt P33261); test: CYP2C19 inhibition, vivid blue substrate O-dealkylation; type: biochemical; settings: pH 7.5, probe isozyme specific vivid blue substrate (O-dealkylation), mean of triplicate, read-out: CYP2C19 Percent Inhibition
Protocol: as §1

CYP2D6 = CYP2D6 (Homo sapiens (Human), UniProt P10635); test: CYP2D6 inhibition, vivid blue substrate O-dealkylation; type: biochemical; settings: pH 7.5, probe isozyme specific vivid blue substrate (O-dealkylation), mean of triplicate, read-out: CYP2D6 Percent Inhibition
Protocol: as §1

CYP3A4 = CYP3A4 (Homo sapiens (Human), UniProt P08684); test: in vitro; settings: pH 7.5
Protocol: as §1, with “Separations were done with an Altex Ultrasphere ODS (4.6 mm×250 mm, 5 μm) column and analytes were eluted with an isocratic solvent system consisting of water/acetonitrile/methanol (30:10:60, v/v/v) at a flow rate of 1.0 mL/min.” left out, “values.” for “values. Each kinetic determination was reported as the mean±SD as described below.”

food intake in rats = test: Order and food effects, operant food sessions; type: in vivo, rat; settings: for Food Effects: mean ± SEM
Excerpt: The conclusion is that the effect of 10 and 11 was selective and highly efficacious on a biological target and not a promiscuous non-specific behavioral effect.

[2] = Table 1, purified human CYP2A6, nine concentrations, read-out: hCYP2A6 IC50
[3] = Table 3, read-out: CYP2A6 Inhibition IC50

Sequence of CYP2B1 (P00176 whole entry, the tested form may be a part): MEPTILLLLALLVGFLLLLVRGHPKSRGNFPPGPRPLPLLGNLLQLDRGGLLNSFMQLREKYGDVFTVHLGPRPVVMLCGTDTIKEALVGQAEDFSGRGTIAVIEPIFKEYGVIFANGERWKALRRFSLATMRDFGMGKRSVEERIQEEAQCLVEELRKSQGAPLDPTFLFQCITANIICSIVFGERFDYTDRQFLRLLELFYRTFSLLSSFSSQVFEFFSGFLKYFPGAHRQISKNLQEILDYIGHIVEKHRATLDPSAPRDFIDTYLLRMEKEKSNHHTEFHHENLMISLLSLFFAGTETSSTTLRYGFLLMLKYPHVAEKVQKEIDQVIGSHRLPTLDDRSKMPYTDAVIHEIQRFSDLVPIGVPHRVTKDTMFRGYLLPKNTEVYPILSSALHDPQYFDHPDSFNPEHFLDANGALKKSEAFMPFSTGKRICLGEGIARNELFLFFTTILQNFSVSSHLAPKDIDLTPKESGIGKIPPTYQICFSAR
Sequence of CYP2C19 (P33261 whole entry): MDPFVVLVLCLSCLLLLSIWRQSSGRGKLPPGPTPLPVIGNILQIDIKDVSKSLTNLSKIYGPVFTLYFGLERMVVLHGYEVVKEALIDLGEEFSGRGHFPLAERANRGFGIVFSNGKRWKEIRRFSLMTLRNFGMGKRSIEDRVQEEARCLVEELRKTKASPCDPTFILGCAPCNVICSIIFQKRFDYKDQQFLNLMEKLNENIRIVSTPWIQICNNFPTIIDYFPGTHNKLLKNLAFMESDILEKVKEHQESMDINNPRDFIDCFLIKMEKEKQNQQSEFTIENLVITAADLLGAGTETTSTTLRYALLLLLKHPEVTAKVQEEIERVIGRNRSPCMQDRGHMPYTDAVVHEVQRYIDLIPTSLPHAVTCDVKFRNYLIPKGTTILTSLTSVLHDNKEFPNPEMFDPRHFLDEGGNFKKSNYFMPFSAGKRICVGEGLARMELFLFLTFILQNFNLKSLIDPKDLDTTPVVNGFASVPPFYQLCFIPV
Sequence of hCYP2B6 (P20813 whole entry): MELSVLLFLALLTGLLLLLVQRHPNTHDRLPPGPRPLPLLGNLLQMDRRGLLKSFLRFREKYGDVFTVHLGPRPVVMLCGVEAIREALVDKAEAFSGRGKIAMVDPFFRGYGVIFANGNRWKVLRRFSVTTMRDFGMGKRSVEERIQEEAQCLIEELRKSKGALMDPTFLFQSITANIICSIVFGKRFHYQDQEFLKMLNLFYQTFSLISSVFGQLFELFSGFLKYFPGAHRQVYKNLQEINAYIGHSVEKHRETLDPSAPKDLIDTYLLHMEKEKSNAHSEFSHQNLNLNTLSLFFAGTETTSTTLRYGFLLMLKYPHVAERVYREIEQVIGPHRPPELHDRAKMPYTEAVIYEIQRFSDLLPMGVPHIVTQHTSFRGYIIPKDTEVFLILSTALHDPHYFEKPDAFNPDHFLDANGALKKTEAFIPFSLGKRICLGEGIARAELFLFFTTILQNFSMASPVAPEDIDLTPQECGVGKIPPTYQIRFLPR
Sequence of CYP2E1 (P05181 whole entry): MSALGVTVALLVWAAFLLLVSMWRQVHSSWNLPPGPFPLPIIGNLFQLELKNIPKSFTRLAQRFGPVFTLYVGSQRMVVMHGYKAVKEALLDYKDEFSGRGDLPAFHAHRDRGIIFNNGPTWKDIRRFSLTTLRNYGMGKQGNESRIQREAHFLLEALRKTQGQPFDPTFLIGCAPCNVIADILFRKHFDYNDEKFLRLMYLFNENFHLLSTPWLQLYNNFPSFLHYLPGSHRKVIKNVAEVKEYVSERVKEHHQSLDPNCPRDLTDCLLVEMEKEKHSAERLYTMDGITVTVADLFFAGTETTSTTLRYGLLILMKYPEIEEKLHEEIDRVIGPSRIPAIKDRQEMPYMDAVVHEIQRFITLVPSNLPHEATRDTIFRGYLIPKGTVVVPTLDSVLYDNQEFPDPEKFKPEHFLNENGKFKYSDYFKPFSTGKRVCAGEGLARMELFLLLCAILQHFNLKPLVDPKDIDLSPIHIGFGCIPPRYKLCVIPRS
Sequence of CYP2C9 (P11712 whole entry): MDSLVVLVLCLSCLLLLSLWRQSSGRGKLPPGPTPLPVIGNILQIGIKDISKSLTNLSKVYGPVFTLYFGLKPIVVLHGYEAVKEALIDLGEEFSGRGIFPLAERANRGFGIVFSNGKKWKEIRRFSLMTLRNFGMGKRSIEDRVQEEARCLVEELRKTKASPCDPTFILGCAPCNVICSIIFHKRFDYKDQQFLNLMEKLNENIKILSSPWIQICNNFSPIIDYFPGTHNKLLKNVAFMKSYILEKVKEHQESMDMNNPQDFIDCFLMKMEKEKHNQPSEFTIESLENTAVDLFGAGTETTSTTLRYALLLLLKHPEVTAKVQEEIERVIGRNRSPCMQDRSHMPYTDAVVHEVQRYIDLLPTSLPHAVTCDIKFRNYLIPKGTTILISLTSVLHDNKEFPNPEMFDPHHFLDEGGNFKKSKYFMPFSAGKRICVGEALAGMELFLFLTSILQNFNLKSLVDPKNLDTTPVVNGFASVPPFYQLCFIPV
Sequence of CYP2D6 (P10635 whole entry): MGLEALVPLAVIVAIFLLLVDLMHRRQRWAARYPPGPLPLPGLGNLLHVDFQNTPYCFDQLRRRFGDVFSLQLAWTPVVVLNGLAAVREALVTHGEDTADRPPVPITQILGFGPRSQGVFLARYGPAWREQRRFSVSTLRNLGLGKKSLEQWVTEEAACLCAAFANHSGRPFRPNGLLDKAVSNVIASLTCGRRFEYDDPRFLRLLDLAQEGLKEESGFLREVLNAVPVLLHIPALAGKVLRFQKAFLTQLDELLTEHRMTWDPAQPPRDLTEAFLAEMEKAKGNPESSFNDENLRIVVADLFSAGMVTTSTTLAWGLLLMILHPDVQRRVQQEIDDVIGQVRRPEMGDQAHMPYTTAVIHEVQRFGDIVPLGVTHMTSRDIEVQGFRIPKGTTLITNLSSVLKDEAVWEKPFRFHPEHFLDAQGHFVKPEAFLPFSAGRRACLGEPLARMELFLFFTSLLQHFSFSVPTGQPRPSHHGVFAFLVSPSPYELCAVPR
Sequence of human CYP2A6 (P11509 whole entry): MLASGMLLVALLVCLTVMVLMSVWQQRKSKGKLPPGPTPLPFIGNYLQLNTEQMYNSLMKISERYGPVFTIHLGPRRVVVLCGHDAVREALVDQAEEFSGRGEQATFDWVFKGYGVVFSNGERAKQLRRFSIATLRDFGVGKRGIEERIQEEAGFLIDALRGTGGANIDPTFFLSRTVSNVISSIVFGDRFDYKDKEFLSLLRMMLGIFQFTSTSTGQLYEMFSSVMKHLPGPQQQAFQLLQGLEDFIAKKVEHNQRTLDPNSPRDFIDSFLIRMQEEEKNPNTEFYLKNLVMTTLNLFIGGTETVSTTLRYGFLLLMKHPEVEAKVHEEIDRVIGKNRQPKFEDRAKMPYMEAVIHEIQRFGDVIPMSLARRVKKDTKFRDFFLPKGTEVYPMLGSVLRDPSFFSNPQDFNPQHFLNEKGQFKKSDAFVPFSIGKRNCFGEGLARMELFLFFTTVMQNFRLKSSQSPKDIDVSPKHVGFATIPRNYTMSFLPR
Sequence of CYP3A4 (P08684 whole entry): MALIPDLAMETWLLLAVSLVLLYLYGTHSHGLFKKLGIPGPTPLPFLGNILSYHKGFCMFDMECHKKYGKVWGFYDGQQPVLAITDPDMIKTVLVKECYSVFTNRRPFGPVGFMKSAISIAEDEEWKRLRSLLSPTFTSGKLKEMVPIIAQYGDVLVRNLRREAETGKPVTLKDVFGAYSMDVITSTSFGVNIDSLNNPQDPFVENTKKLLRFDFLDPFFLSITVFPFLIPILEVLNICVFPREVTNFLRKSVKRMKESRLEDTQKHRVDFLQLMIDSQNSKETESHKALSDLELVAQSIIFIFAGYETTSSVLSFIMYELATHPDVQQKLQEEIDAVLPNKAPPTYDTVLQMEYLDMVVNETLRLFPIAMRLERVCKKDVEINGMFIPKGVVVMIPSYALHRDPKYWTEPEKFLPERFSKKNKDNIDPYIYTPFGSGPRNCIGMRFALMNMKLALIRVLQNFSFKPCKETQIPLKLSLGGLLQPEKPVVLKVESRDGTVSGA

- IC50 (human CYP2A6; [2]): > 200000 nM
- Ki (human CYP2A6): > 200000 nM
- inhibition at 100 µM (CYP2B1): 43.3%
SMILES: c1cncc(Cn2ccnc2)c1 [Compound 7, N-(3-Pyridylmethyl)imidazole]
- Number of nicotine infusions, Compound (15 mg/kg) ([1]; FR1): 7.5 ± 1.9^d
- % Change (decrease in nicotine self-administration) ([1]; 15 mg/kg i.p.): 28.6%

SMILES: CNC1(C)C2CCC(C2)C1(C)C (centres unmarked) [Mecamylamine, reference compound]
- decrease in responding for nicotine versus vehicle ([1]; 3.0 mg/kg, s.c., 30 minutes before the session, FR1): 62%

- IC50 (human CYP2A6; [2]): 800 nM
- IC50 (hCYP2B6): 67400 nM
- inhibition at 100 µM (CYP2B1): 55.3%
SMILES: NCc1cc(-c2cccnc2)no1 [Compound 2]
- Number of nicotine infusions, Compound (15 mg/kg) ([1]; FR1): 8.4 ± 1.7
- % Change (decrease in nicotine self-administration) ([1]; 15 mg/kg i.p.): 19.2%
- Number of nicotine infusions, Compound (25 mg/kg) ([1]; FR1): 5.6 ± 1.6^d
- % Change (decrease in nicotine self-administration) ([1]; 25 mg/kg i.p.): 60. %

SMILES: N[C@@H]1C[C@H]1c1ccccc1 (racemic) [Tranylcypromine, reference compound]
- IC50 (human CYP2A6; [3]): 233 nM

SMILES: NCc1ccc(-c2cccnc2)o1 [Compound 6]
- IC50 (human CYP2A6; [2]): 200 nM
- inhibition at 100 µM (CYP2B1): 46.6%
- Number of nicotine infusions, Compound (15 mg/kg) ([1]; FR1): 16.8 ± 2.3^d
- % Change (decrease in nicotine self-administration) ([1]; 15 mg/kg i.p.): 27.6%
- Number of nicotine infusions, Compound (25 mg/kg) ([1]; FR1): 8.3 ± 2.1^d
- % Change (decrease in nicotine self-administration) ([1]; 25 mg/kg i.p.): 64.2%

SMILES: c1cncc(-c2c[nH]cn2)c1 [Compound 8]
- IC50 (human CYP2A6; [2]): 800000 nM
- IC50 (human CYP2A6; [3]): 800 nM
- effect on nicotine intake, ANOVA of dose response ([1]; i.p.): failed to reveal a significant effect

- IC50 (human CYP2A6; [2]): 160 nM
- Ki (human CYP2A6): 80 nM
- IC50 (hCYP2B6): 12000 nM
- inhibition at 100 µM (CYP2B1): 35.5%
- inhibition of human CYP 2E1 (in words) (CYP2E1): some inhibition
- inhibition at 10 µM (CYP2E1): 87%
- inhibition at 10 µM (CYP2C9): 32%
- inhibition at 10 µM (CYP2C19): 43%
- inhibition at 10 µM (CYP2D6): 48%
SMILES: Clc1ccc(Cn2ccnc2)cc1 [Compound 3, N-(4-Chlorobenzyl)imidazole]
- inhibition of human CYP 2B6 (in words) (hCYP2B6): inhibited human CYP 2B6 to a certain extent
- Number of nicotine infusions, Compound (15 mg/kg) ([1]; FR1): 13.0 ± 2.7
- % Change (decrease in nicotine self-administration) ([1]; 15 mg/kg i.p.): 23.6%

- IC50 (human CYP2A6; [2]): 600 nM
- IC50 (hCYP2B6): 66400 nM
- inhibition at 100 µM (CYP2B1): 53.8%
SMILES: NCc1cc(-c2cccnc2)n[nH]1 [Compound 1]
- Number of nicotine infusions, Compound (15 mg/kg) ([1]; FR1): 11.6 ± 2.9
- % Change (decrease in nicotine self-administration) ([1]; 15 mg/kg i.p.): 14.7%

- inhibition at 100 µM (CYP2B1): 53.5%
SMILES: c1cc(CCn2ccnc2)ccn1 [Compound 9, N-(4-Pyridylethyl)imidazole]
- nicotine self-administration under a FR schedule (in words) ([1]; 15 mg/kg, i.p., 30-min prior): decreased nicotine self-administration

- inhibition at 100 µM (CYP2B1): 42.7%
SMILES: NCc1ccc(-c2cccnc2)s1 [Compound 4]
- Number of nicotine infusions, Compound (15 mg/kg) ([1]; FR1): 11.8 ± 3.2
- % Change (decrease in nicotine self-administration) ([1]; 15 mg/kg i.p.): 23.4%

- IC50 (human CYP2A6; [2]): 170000 nM
- IC50 (hCYP2B6): 11000 nM
- inhibition at 100 µM (CYP2B1): 56.9%
- inhibition at 10 µM (CYP3A4): 27%
- inhibition of human CYP 2E1 (in words) (CYP2E1): some inhibition
- inhibition at 10 µM (CYP2E1): 89%
- inhibition at 10 µM (CYP2C9): 44%
- inhibition at 10 µM (CYP2C19): 24%
- inhibition at 10 µM (CYP2D6): 34%
- Food Effects (food intake in rats; Dose 0.5 mg/kg): 80 ± 1.8
- Food Effects (food intake in rats; Dose 1.58 mg/kg): 79 ± 2.5
- Food Effects (food intake in rats; Dose 5.0 mg/kg): 77 ± 3.2
SMILES: c1cn(CC2CCCCC2)cn1 [Compound 10, N-(Cyclohexylmethyl)imidazole]
- inhibition of human CYP 2B6 (in words) (hCYP2B6): inhibited human CYP 2B6 to a certain extent
- ED50 [1]: 4 mg/kg
- effect on nicotine intake, ANOVA of dose response ([1]; i.p.): significant effect

SMILES: c1ccc(CCn2ccnc2)cc1 [Compound 11, 1-Phenethyl-2-imidazol-1-yl]
- IC50 (human CYP2A6; [2]): 618000 nM
- IC50 (human CYP2A6; [3]): 618 nM
- inhibition of human CYP 2B6 (in words) (hCYP2B6): inhibited human CYP 2B6 to a certain extent
- IC50 (hCYP2B6): > 20000 nM
- inhibition at 100 µM (CYP2B1): 67.7%
- inhibition at 10 µM (CYP3A4): 63%
- inhibition of human CYP 2E1 (in words) (CYP2E1): some inhibition
- inhibition at 10 µM (CYP2E1): 88%
- inhibition at 10 µM (CYP2C9): 13%
- inhibition at 10 µM (CYP2C19): 21%
- inhibition at 10 µM (CYP2D6): 62%
- ED50 [1]: 3 mg/kg
- effect on nicotine intake, ANOVA of dose response ([1]; i.p.): significant effect
- effect on food intake (in words) (food intake in rats; 5 mg/kg, 30-min operant food sessions): significant suppression
- Food Effects (food intake in rats; Dose 2.8 mg/kg): 79 ± 1.3
- Food Effects (food intake in rats; Dose 5.0 mg/kg): 63 ± 5.6

- inhibition at 100 µM (CYP2B1): 47.9%
SMILES: Cc1ccsc1-c1cccnc1 [Compound 5]
- Number of nicotine infusions, Compound (15 mg/kg) ([1]; FR1): 8.8 ± 1.6
- Number of nicotine infusions, Compound (25 mg/kg) ([1]; FR1): 1.6 ± 0.7^d
